Legend:
[1] = system: NF-κB-regulated reporter; assay: NF-κB reporter induced by transfected TRAF2, MyD88, IKKβ or p65 plasmid; format: cell-based; conditions: HEK293T; RA-V 48 h
Procedure: To determine where RA-V acts in this pathway, TRAF2, MyD88, IKKβ, or p65 plasmid was transiently transfected into HEK293T cells together with the 5 × κB-lucieferase and pTK-Renilla reporters. […] Western blots were performed to investigate the effect of RA-V on NF-κB-associated proteins in HEK293T cells transfected with the TRAF2, MyD88, or IKKβ plasmid. […] Moreover, we used a computational method to predict where RA-V is likely to act in this pathway.
Fig. 3 RA-V represses NF-κB activation upstream of the IKK protein complex. a RA-V inhibited the TRAF2- and MyD88-induced expression of the NF-κB reporter in a dose-dependent manner. The indicated plasmids were transfected into HEK293T cells together with the 5 × κB-luciferase and pTK-Renilla reporters. Twenty-four hours after transfection, the cells were incubated with various concentrations of RA-V for 48 h before luciferase assays were performed. b RA-V inhibited TRAF2- and MyD88-induced p65 phosphorylation and IκBα phosphorylation in a dose-dependent manner. HEK293T cells were transfected with TRAF2, MyD88, IKKβ, or p65 for 24 h and then treated with various concentrations of RA-V for 48 h. The cell lysates were immunoblotted with the indicated antibodies. c RA-V likely exerts its inhibitory activity on the NF-κB pathway by acting on the TRAF6-TAK1–TAB1/2 complex. […]

[2] = system: p65 nuclear translocation; assay: Immunofluorescence assay of p65 nuclear translocation; format: cell-based; conditions: HeLa; 200 nM RA-V 6 h, 10 ng/mL TNF-α 15 min
[3] = system: TAK1, JNK, ERK, p38, and IKKα/β phosphorylation; assay: Western blot of TAK1 and downstream kinase phosphorylation; format: cell-based; conditions: HeLa; RA-V 12 h, 10 ng/mL TNF-α 10 min
Procedure: HEK293T cells were transfected with TAK1-N or TAK1-C for 24 h. The cells lysates were incubated with CB12 or biotin and precipitated with streptavidin-coated sepharose and were analyzed by immunoblotting with Flag antibody. b The model for RA-V binding to the crystal structure of the TAK1–TAB1 fusion protein (PDB 4GS6). The blue dotted lines represent the hydrogen bonds between RA-V (green) and TAK1–TAB1. c RA-V probably binds the ATP-binding pocket of TAK1. HEK293T cells were transfected with TAK1 for 24 h, and then the cell lysates were incubated with biotin or CB12 before precipitation with streptavidin agarose. The immunoprecipitates were treated with ATP or (5Z)-7-oxozeaenol and western blotted with Flag antibody. d RA-V inhibits TAK1, JNK, ERK, p38, and IKKα/β phosphorylation. HeLa cells were incubated with various concentrations of RA-V for 12 h and then treated with 10 ng/mL TNF-α for 10 min. The cell lysates were prepared and western blotted with the indicated antibodies. Each experiment was repeated at least three times
For western blot analysis, the samples were equally subjected to sodium dodecyl sulfate polyacrylamide gel electrophoresis (SDS-PAGE) and transferred to polyvinylidene difluoride membranes (Millipore). […] The protein bands were detected with the SuperSignal West Pico Chemiluminescent Substrate (Pierce).

[4] = system: NF-κB activation; assay: Bioluminescence imaging of NF-κB-luciferase transgenic mice in the endotoxin shock model; format: in vivo; conditions: RA-V micelles 0.25 mg/kg i.v. 52, 28, 4 h before LPS 10 mg/kg i.p.; n = 4; particularly 2 h after LPS
Procedure: Fig. 2 RA-V prevents endotoxic shock and inhibits NF-κB activation in vivo. a–c RA-V prevents endotoxic shock in vivo. Mice (n = 6 per group) were intravenously injected with RA-V micelles (0.25 mg/kg body weight) or control micelles 52, 28, and 4 h before an intraperitoneal injection of LPS (10 mg/kg). One hour later, the relative levels of IL-6 and TNF-α mRNAs in the liver were assessed by quantitative RT-PCR (a), the serum IL-6 and TNF-α levels were quantified by ELISA (b), and the expression of p65 and IκBα phosphorylation in the liver were measured by immunoblot analysis c. d RA-V improved animal survival. Mice (n = 20 per group) were intravenously injected with RA-V micelles (0.25 mg/kg body weight) or control micelles 52, 28, and 4 h before intraperitoneal injection of LPS (20 mg/kg). Animal survival was recorded in 2–3 hours intervals. e RA-V inhibits NF-κB activation in vivo. […] The bioluminescent signals from all of the mice were detected and quantified. […]
The bioluminescence imaging of the NF-κB-luciferase transgenic mice was performed using a Xenogen IVIS Spectrum in vivo imaging system (Caliper Life Sciences). […] After 15 min, the in vivo bioluminescence was measured at the indicated times. The bioluminescent signals from all of the mice were detected and quantified.

With RA-V the “NF-κB-regulated reporter expression in cells transfected with IKKβ or p65” value [1] was “no effect”, the “NF-κB-regulated reporter expression in cells transfected with TRAF2 or MyD88” value [1] was “dose-dependently suppressed” and the “TNF-α-induced p65 nuclear translocation” value [2] was “significantly blocked”. For the same substance, the “phosphorylation of TAK1 and of IKKα/β, JNK, ERK, and p38” value [3] was “inhibited” and the “NF-κB activation, in vivo bioluminescence” value [4] was “inhibited NF-κB activation”.

Reference: publication PMC6006164, “Natural cyclopeptide RA-V inhibits the NF-κB signaling pathway by targeting TAK1” (Cell Death & Disease, 2018)
